The source of these data is patent US20250230165A1, “HETEROCYCLIC COMPOUNDS FOR USE IN THE TREATMENT OF CANCER” (ARTIOS PHARMA LIMITED, priority 2021, published 2025).

This assay addresses T1, Human Polθ polymerase domain (aa1820-2590) (Homo sapiens, UniProt O75417).
T1 construct: Human Polθ polymerase domain (aa1820-2590) was expressed in E. coli; made in house; host or cells: E. coli
T1 sequence (O75417 1820-2590): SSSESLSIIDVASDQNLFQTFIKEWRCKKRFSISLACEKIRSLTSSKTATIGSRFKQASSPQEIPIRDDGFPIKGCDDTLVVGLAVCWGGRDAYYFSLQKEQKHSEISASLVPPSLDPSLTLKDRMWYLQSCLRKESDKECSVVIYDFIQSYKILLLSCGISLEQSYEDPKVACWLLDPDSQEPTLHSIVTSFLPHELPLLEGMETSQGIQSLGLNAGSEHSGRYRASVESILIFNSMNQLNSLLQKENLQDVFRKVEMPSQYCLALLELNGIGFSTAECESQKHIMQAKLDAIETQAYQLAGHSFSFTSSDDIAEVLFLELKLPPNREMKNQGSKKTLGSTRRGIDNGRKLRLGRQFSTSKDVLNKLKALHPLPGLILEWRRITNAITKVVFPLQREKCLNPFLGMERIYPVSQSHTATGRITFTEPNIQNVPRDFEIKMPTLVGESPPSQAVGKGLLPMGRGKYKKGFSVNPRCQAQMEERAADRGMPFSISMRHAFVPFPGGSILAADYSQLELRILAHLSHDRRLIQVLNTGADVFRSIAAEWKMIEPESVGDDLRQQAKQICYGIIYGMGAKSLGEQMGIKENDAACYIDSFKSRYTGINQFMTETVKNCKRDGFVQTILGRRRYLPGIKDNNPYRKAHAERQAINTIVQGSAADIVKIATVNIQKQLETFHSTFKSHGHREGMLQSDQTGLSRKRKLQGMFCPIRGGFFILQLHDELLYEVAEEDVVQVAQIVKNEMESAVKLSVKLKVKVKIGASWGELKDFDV
Put plainly: Polθ Polymerase Domain Kinact/KI Assay (PicoGreen). The format is biochemical. The note with it: 0.8 nM Polθ, 100 nM DNA substrate, kobs vs [I] fit for 2-step covalent inhibitor. An outline of the steps: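 Time-dependent inhibition was followed by quenching reactions with EDTA at points up to 60 min, then staining product DNA with PicoGreen fluorescence. Reactions held 0.8 nM E. coli-expressed Polθ, 100 nM primed DNA substrate and […] at pH 7.5, 1% DMSO. kobs versus inhibitor concentration gave Kinact and KI.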

`C=C(CN(C)C)C(=O)N[C@H]1CCc2nc(CN3C[C@H]4CC(=O)N(c5cc(C(F)(F)F)cc(C)n5)[C@@H]4C(=O)N(C)c4cccc(C)c43)cn2C1` (racemic) [Example 329b, N-((S/R)-2-(((3aR, 11aS)-6,10-dimethyl-1-(6-methyl-4-(tri-fluoromethyl)pyridin-2-yl)-2,11-dioxo-1,2,3,3a,4,10,11,11a-octahydro-5H-benzo [b]pyrrolo[2,3-f][1,4]diazocin-5-yl)meth-yl)-5,6,7,8-tetrahydro-imidazo[1,2-a]pyr-idin-6-yl)-2-((dimeth-ylamino)methyl)-acrylamide] showed a Kinact/Kl of 5.73e+06 M⁻¹ s⁻¹.
Consider `C=CC(=O)N1CCC[C@@H]1c1nc(CN2C[C@H]3CC(=O)N(c4cc(C(F)(F)F)cc(C)n4)[C@@H]3C(=O)N(C)c3cccc(C)c32)no1` [Example 270, (3aR,11aS)-5-((5-((R)-1-acryloylpyrrolidin-2-yl)-1,2,4-oxadiazol-3-yl)methyl)-6,10-dimethyl-1-(6-methyl-4-(trifluoromethyl)pyridin-2-yl)-1,3a,4,5,10,11a-hexahydro-2H-benzo[b]pyrrolo[2,3-f][1,4]diazocine-2,11(3H)-dione], for which the Kinact/Kl was determined as 110000 M⁻¹ s⁻¹.
On to `C=CC(=O)N1Cc2nc(CN3C[C@H]4CC(=O)N(c5cc(C(F)(F)F)cc(C)n5)[C@@H]4C(=O)N(C)c4cccc(Cl)c43)cn2CC1C` (single isomer, unassigned) [Example 143a], for which the Kinact/Kl came to 1e+06 M⁻¹ s⁻¹.
Under `C=C(CN(C)C)C(=O)N1CC(CCCCN2C[C@H]3CC(=O)N(c4cc(C(F)(F)F)cc(C)n4)[C@@H]3C(=O)N(C)c3cccc(Cl)c32)C1` [Example 161, (3aR, 11aS)-6-chloro-5-(4-(1-(2-((dimethylamino)methyl)acryloyl)azetidin-3-yl)butyl)-10-methyl-1-(6-methyl-4-(trifluoromethyl)pyridin-2-yl)-1,3a,4,5,10,11a-hexahydro-2H-benzo[b]pyrrolo[2,3-f][1,4]diazocine-2,11(3H)-dione] stands 5.08e+06 M⁻¹ s⁻¹.
